Patent US20090312349A1, “ANTI-INFLAMMATORY MEDICAMENTS” (priority 2004, published 2009)

Key:
Assay type in all cases: biochemical
Abl kinase = target: T1, Abl kinase (Homo sapiens, UniProt P00519); experiment: Abl kinase assay A1; conditions: read-out: Results, % @ concentration μM, Method A1; @ 10 μM
T1 sequence (P00519 229-512): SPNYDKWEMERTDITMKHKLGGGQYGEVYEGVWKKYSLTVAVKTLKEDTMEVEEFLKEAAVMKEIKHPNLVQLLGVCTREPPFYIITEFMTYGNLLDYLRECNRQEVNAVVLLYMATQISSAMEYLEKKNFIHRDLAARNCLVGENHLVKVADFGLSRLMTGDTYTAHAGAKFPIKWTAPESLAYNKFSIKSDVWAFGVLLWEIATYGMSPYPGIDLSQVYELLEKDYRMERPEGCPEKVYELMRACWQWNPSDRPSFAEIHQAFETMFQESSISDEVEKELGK
Procedure: (§1) IC50 values were calculated from a series of percent inhibition values determined at a range of inhibitor concentrations using software routines as implemented in the GraphPad Prism software package.

B-Raf(V599E) kinase = B-Raf(V599E) kinase (Homo sapiens, UniProt P15056, V600E); experiment: B-Raf(V599E) kinase assay B1; conditions: for IC50: Method B1, construct 1
Procedure: The test compounds were incubated with the reaction mixture at 30° C. for 2 h. […] The reaction rate was calculated using the 1.5 h to 2.5 h time frame. […] IC50 values were calculated from a series of percent inhibition values determined at a range of inhibitor concentrations using software routines as implemented in the GraphPad Prism software package.

[1] = target: T2, phospho p-38 alpha kinase (Homo sapiens, UniProt Q16539); experiment: P-38 alpha kinase assay (spectrophotometric, pyruvate kinase/lactate dehydrogenase coupled); conditions: Table 5; for IC50: assay not named, read-out: uM
T2 construct: purchased Panvera

KDR kinase = KDR kinase (Homo sapiens, UniProt P35968, DEL940-989/E990V); experiment: KDR kinase assay K1; conditions: read-out: Results, % @ concentration μM, Method K1; @ 10 μM
Procedure: as §1

[2] = target: phosphorylated p-38-alpha kinase (Homo sapiens, UniProt Q16539); experiment: P-38 alpha kinase assay P1; conditions: Method P1; for IC50: 2 h pre-incubation before ATP
[3] = read-out: Results, % @ concentration μM

Sequence of phosphorylated p-38-alpha kinase (Q16539 1-360 isoform Q16539-2): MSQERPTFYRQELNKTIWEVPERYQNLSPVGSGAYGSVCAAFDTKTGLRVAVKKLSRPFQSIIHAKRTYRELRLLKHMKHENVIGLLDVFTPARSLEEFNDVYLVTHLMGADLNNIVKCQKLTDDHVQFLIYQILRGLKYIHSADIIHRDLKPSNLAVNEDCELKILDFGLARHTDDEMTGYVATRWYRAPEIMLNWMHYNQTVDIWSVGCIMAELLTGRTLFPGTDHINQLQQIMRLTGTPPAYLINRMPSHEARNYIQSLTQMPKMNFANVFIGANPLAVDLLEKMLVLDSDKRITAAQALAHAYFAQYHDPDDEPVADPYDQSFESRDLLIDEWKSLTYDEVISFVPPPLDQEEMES
Sequence of B-Raf(V599E) kinase (P15056 with tags, fused parts or gaps V600E): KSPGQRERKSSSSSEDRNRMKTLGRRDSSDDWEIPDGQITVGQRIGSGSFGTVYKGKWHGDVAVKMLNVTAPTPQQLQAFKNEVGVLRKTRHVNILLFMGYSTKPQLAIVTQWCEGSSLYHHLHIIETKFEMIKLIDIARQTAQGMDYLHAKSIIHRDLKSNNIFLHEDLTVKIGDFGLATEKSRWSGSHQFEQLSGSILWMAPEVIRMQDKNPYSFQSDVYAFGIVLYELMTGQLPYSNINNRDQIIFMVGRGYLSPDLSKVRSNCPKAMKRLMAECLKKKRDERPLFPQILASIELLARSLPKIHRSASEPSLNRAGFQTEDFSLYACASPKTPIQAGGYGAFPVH
Sequence of KDR kinase (P35968 with tags, fused parts or gaps DEL940-989/E990V): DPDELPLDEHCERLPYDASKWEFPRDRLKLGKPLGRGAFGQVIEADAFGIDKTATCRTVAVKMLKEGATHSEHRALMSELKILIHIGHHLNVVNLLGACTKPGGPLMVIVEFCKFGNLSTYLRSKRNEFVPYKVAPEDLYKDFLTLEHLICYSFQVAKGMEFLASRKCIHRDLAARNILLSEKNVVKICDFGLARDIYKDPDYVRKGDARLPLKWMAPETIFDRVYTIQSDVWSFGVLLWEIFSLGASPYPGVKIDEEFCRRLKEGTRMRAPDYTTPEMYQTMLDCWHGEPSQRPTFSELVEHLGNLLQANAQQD
T2 sequence (Q16539 whole entry): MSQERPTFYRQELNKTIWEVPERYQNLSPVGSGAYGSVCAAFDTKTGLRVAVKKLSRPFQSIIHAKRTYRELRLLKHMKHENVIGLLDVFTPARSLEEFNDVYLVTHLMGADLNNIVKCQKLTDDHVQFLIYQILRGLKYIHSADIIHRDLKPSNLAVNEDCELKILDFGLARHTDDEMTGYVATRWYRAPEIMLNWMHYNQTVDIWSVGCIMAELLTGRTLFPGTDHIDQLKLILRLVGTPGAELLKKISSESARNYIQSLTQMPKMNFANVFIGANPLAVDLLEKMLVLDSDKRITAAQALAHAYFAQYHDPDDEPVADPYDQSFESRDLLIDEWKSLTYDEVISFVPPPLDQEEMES

SMILES	IC50 [1] [µM]	inhibition at 10 µM (KDR kinase) [%]	IC50 [2] [µM]	other results
O=C(O)Cc1cccc(-n2nc(-c3ccc(F)cc3)cc2NC(=O)Nc2cccc(Cl)c2Cl)c1 [Example 431, 2-(3-(5-(3-(2,3-dichlorophenyl)ureido)-3-(4-fluorophenyl)-1H-pyrazol-1-yl)phenyl)acetic acid]	–	–	–	inhibition at 10 µM (Abl kinase): 29%
O=C(O)Cc1cccc(-n2nc(-c3cccs3)cc2NC(=O)Nc2cccc(Cl)c2Cl)c1 [Example 435, 2-(3-(5-(3-(2,3-dichlorophenyl)ureido)-3-(thiophen-2-yl)-1H-pyrazol-1-yl)phenyl)acetic acid]	–	–	–	IC50 (B-Raf(V599E) kinase): 0.16 µM
O=C(O)Cc1ccc(-n2nc(-c3ccccc3)cc2NC(=O)Nc2cccc(Cl)c2Cl)cc1 [Example 438, 2-(4-(5-(3-(2,3-dichlorophenyl)ureido)-3-phenyl-1H-pyrazol-1-yl)phenyl)acetic acid]	1.3	39	–	–
O=C(O)Cc1ccc(-n2nc(-c3ccccc3F)cc2NC(=O)Nc2cccc(Cl)c2Cl)cc1 [Example 440, 2-(4-(5-(3-(2,3-dichlorophenyl)ureido)-3-(2-fluorophenyl)-1H-pyrazol-1-yl)phenyl)acetic acid]	0.92	56	0.009	–
O=C(O)Cc1ccc(-n2nc(-c3cccs3)cc2NC(=O)Nc2cccc(Cl)c2Cl)cc1 [Example 442, 2-(4-(5-(3-(2,3-dichlorophenyl)ureido)-3-(thiophen-2-yl)-1H-pyrazol-1-yl)phenyl)acetic acid]	3.01	25	–	inhibition at 1 µM (B-Raf(V599E) kinase; [3]): 24%
CC(C(=O)O)c1ccc(-n2nc(-c3cccs3)cc2NC(=O)Nc2cccc(Cl)c2Cl)cc1 (stereo not drawn) [Example 443, 2-(4-(5-(3-(2,3-dichlorophenyl)ureido)-3-(thiophen-2-yl)-1H-pyrazol-1-yl)phenyl)propanoic acid]	–	33	0.03	inhibition at 1 µM (B-Raf(V599E) kinase; [3]): 20%
O=C(O)Cc1ccc(-n2nc(-c3ccsc3)cc2NC(=O)Nc2cccc(Cl)c2Cl)cc1 [Example 444, 2-(4-(5-(3-(2,3-dichlorophenyl)ureido)-3-(thiophen-3-yl)-1H-pyrazol-1-yl)phenyl)acetic acid]	5	–	0.006	inhibition at 1 µM (B-Raf(V599E) kinase; [3]): 42%
NC(=O)Cc1cccc(-n2nc(-c3cccc(F)c3)cc2NC(=O)Nc2cccc(Cl)c2Cl)c1 [Example 449, 1-(1-(3-(2-amino-2-oxoethyl)phenyl)-3-(3-fluorophenyl)-1H-pyrazol-5-yl)-3-(2,3-dichlorophenyl)urea]	–	33	0.022	–
NC(=O)Cc1cccc(-n2nc(-c3ccccc3F)cc2NC(=O)Nc2cccc(Cl)c2Cl)c1 [Example 450, 1-(1-(3-(2-amino-2-oxoethyl)phenyl)-3-(2-fluorophenyl)-1H-pyrazol-5-yl)-3-(2,3-dichlorophenyl)urea]	–	45	0.013	% @ concentration, uM ([1]; @ 1 uM): 89%; % @ concentration, uM ([1]; @ 10 uM): 192%
NC(=O)Cc1cccc(-n2nc(-c3cccs3)cc2NC(=O)Nc2cccc(Cl)c2Cl)c1 [Example 451, 1-(1-(3-(2-amino-2-oxoethyl)phenyl)-3-(thiophen-2-yl)-1H-pyrazol-5-yl)-3-(2,3-dichlorophenyl)urea]	–	–	0.008	% @ concentration, uM ([1]; @ 1 uM): 3% @1; IC50 (B-Raf(V599E) kinase): 0.84 µM
CC(C(N)=O)c1cccc(-n2nc(-c3ccsc3)cc2NC(=O)Nc2cccc(Cl)c2Cl)c1 (stereo not drawn) [Example 453, 1-(1-(3-(1-amino-1-oxopropan-2-yl)phenyl)-3-(thiophen-3-yl)-1H-pyrazol-5-yl)-3-(2,3-dichlorophenyl)urea]	–	34	–	–
O=C(Cc1cccc(-n2nc(-c3ccccc3)cc2NC(=O)Nc2cccc(Cl)c2Cl)c1)NCCO [Example 454, 1-(2,3-dichlorophenyl)-3-(1-(3-(2-(2-hydroxyethylamino)-2-oxoethyl)phenyl)-3-phenyl-1H-pyrazol-5-yl)urea]	–	27	–	–
O=C(Cc1cccc(-n2nc(-c3cccc(F)c3)cc2NC(=O)Nc2cccc(Cl)c2Cl)c1)NCCO [Example 455, 1-(2,3-dichlorophenyl)-3-(3-(3-fluorophenyl)-1-(3-(2-(2-hydroxyethylamino)-2-oxoethyl)phenyl)-1H-pyrazol-5-yl)urea]	0.1	–	0.018	inhibition at 1 µM (B-Raf(V599E) kinase; [3]): 30%
O=C(Cc1cccc(-n2nc(-c3ccccc3F)cc2NC(=O)Nc2cccc(Cl)c2Cl)c1)NCCO [Example 456, 1-(2,3-dichlorophenyl)-3-(3-(2-fluorophenyl)-1-(3-(2-(2-hydroxyethylamino)-2-oxoethyl)phenyl)-1H-pyrazol-5-yl)urea]	0.04	53	0.015	–
O=C(Cc1cccc(-n2nc(-c3cccs3)cc2NC(=O)Nc2cccc(Cl)c2Cl)c1)NCCO [Example 457, 1-(2,3-dichlorophenyl)-3-(1-(3-(2-(2-hydroxyethylamino)-2-oxoethyl)phenyl)-3-(thiophen-2-yl)-1H-pyrazol-5-yl)urea]	1.1	31	0.008	–
O=C(Cc1cccc(-n2nc(-c3ccsc3)cc2NC(=O)Nc2cccc(Cl)c2Cl)c1)NCCO [Example 458, 1-(2,3-dichlorophenyl)-3-(1-(3-(2-(2-hydroxyethylamino)-2-oxoethyl)phenyl)-3-(thiophen-3-yl)-1H-pyrazol-5-yl)urea]	1	–	0.007	inhibition at 1 µM (B-Raf(V599E) kinase; [3]): 28%
O=C(Cc1cccc(-n2nc(-c3cccs3)cc2NC(=O)Nc2cccc(Cl)c2Cl)c1)NCC(O)CO (stereo not drawn) [Example 460, 1-(2,3-dichlorophenyl)-3-(1-(3-(2-(2,3-dihydroxypropylamino)-2-oxoethyl)phenyl)-3-(thiophen-2-yl)-1H-pyrazol-5-yl)urea]	–	26	0.008	IC50 (B-Raf(V599E) kinase): 2.4 µM
O=C(Cc1cccc(-n2nc(-c3ccccc3F)cc2NC(=O)Nc2cccc(Cl)c2Cl)c1)NC(CO)CO [Example 461, 1-(2,3-dichlorophenyl)-3-(1-(3-(2-(1,3-dihydroxypropan-2-ylamino)-2-oxoethyl)phenyl)-3-(2-fluorophenyl)-1H-pyrazol-5-yl)urea]	0.017	33	0.03	inhibition at 10 µM (B-Raf(V599E) kinase; [3]): 28%
O=C(Cc1cccc(-n2nc(-c3cccs3)cc2NC(=O)Nc2cccc(Cl)c2Cl)c1)NC(CO)CO [Example 462, 1-(2,3-dichlorophenyl)-3-(1-(3-(2-(1,3-dihydroxypropan-2-ylamino)-2-oxoethyl)phenyl)-3-(thiophen-2-yl)-1H-pyrazol-5-yl)urea]	–	25	0.008	inhibition at 1 µM (B-Raf(V599E) kinase; [3]): 43%
NC(=O)Cc1ccc(-n2nc(-c3cccs3)cc2NC(=O)Nc2cccc(Cl)c2Cl)cc1 [Example 468, 1-(1-(4-(2-amino-2-oxoethyl)phenyl)-3-(thiophen-2-yl)-1H-pyrazol-5-yl)-3-(2,3-dichlorophenyl)urea]	0.0086	–	0.009	IC50 (B-Raf(V599E) kinase): 1.2 µM
O=C(Cc1ccc(-n2nc(-c3ccccc3)cc2NC(=O)Nc2cccc(Cl)c2Cl)cc1)NCCO [Example 470, 1-(2,3-dichlorophenyl)-3-(1-(4-(2-(2-hydroxyethylamino)-2-oxoethyl)phenyl)-3-phenyl-1H-pyrazol-5-yl)urea]	0.005	–	–	inhibition at 10 µM (Abl kinase): 15%
O=C(Cc1ccc(-n2nc(-c3cccs3)cc2NC(=O)Nc2cccc(Cl)c2Cl)cc1)NCC(O)CO (stereo not drawn) [Example 472, 1-(2,3-dichlorophenyl)-3-(1-(4-(2-(2,3-dihydroxypropylamino)-2-oxoethyl)phenyl)-3-(thiophen-2-yl)-1H-pyrazol-5-yl)urea]	0.05	–	0.01	–
O=C(Cc1ccc(-n2nc(-c3cccs3)cc2NC(=O)Nc2cccc(Cl)c2Cl)cc1)NC(CO)CO [Example 474, 1-(2,3-dichlorophenyl)-3-(1-(4-(2-(1,3-dihydroxypropan-2-ylamino)-2-oxoethyl)phenyl)-3-(thiophen-2-yl)-1H-pyrazol-5-yl)urea]	0.38	–	0.013	–
O=C(Nc1cccc(Cl)c1Cl)Nc1cc(-c2ccccc2)nn1-c1cccc(CO)c1 [Example 484, 1-(2,3-dichlorophenyl)-3-(1-(3-(hydroxymethyl)phenyl)-3-phenyl-1H-pyraol-5-yl)urea]	–	37	0.009	IC50 (B-Raf(V599E) kinase): 7.4 µM
O=C(Nc1cccc(Cl)c1Cl)Nc1cc(-c2ccccc2F)nn1-c1cccc(CO)c1 [Example 485, 1-(2,3-dichlorophenyl)-3-(3-(2-fluorophenyl)-1-(3-(hydroxymethyl)phenyl)-1H-pyrazol-5-yl)urea]	0.05	79	–	–
CC(C)(C)c1cc(NC(=O)Nc2cccc(-c3cnccn3)c2)n(-c2cccc(CC(N)=O)c2)n1 [Example 509, 1-(1-(3-(2-amino-2-oxoethyl)phenyl)-3-tert-butyl-1H-pyrazol-5-yl)-3-(3-(pyrazin-2-yl)phenyl)urea]	0.5	–	–	Results, % @ concentration μM ([2]; @ 1.0 μM): 57% @1.0; IC50 (B-Raf(V599E) kinase): 0.28 µM
